The structures appear in SMILES notation. Counter-ions that a name gives are not always drawn. Like-named read-outs stand apart in the source and are kept apart here.

This assay deals with T1, acetylcholine esterase (Mus musculus, UniProt P21836).
T1 construct: using a mouse brain homogenate as the acetylcholine esterase source; from tissue; host or cells: mouse brain homogenate
As to the kind of experiment: biochemical.

[1] abbreviates: read-out: AChE inhibiting activity IC50.

T1 sequence (P21836 32-614): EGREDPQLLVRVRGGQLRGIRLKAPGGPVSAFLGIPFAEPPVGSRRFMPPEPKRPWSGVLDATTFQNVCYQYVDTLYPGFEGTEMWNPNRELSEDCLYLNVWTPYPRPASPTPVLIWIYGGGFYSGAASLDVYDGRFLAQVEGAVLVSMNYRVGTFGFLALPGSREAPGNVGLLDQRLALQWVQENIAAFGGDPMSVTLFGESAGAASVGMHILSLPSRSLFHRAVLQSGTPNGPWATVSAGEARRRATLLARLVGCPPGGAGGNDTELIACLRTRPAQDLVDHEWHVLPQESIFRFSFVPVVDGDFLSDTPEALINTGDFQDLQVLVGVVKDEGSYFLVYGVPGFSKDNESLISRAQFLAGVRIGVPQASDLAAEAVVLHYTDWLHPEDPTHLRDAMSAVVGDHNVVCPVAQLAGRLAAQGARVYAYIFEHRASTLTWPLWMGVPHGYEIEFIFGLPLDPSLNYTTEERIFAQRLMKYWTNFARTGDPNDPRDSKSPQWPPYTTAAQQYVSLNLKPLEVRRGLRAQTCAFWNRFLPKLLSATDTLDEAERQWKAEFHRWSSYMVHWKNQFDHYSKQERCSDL

The compound `O=c1oc2ccc(F)cc2c(=O)n1CCC1CCN(Cc2ccccc2)CC1` [Example 39] registered an IC50 of 7.79 nM.
The same measure, in the same setting: the figure for `CCOc1ccccc1C(=O)C1CC(=O)N(CCC2CCN(Cc3ccccc3)CC2)C1` (centres unmarked) [Example 74] is 27.7 nM.
The same measure, in the same setting: the figure for `C=C1c2ccccc2C(=O)N1CCC1CCN(Cc2ccccc2)CC1` [Example 27] is 45.4 nM.
On the same count and under the same terms, to `COc1ccc2oc(=O)n(CCC3CCN(Cc4ccoc4)CC3)c(=O)c2c1` [Example 46] belongs 11.4 nM; to `O=C1Oc2ccc([N+](=O)[O-])cc2CN1CCC1CCN(Cc2ccccc2)CC1` [Example 31], 0.58 nM.
Consider `COc1ccc2c(c1)CN(CCC1CCN(CC3CCCCC3)CC1)C(=O)O2` [Example 42], for which the 50% inhibitory concentration (IC50) came out at 3.92 nM.
Same read-out and setting: to `O=C1Nc2ncccc2CN1CCC1CCN(CC2OCCO2)CC1` [Example 66] belongs 288 nM; to `O=c1oc2ccccc2c(=O)n1CCC1CCN(Cc2ccccc2)CC1` [Example 3, 3-[2-(1-Benzyl-4-piperidyl)ethyl]-2H-3,4-dihydro-1,3-benzoxazine-2,4-dione hydrochloride], 8.52 nM.
Take `O=c1[nH]c2c([N+](=O)[O-])cccc2c(=O)n1CCC1CCN(CC2OCCO2)CC1` [Example 68]: the IC50 under setting [1] amounted to 220 nM.
Still for that read-out and setting: the figure for `O=C1CCCc2cccnc2N1CCC1CCN(Cc2ccccc2)CC1` [Example 20] is 69.1 nM.
Regarding `COc1ccc2oc(=O)n(CCC3CCN(Cc4cccc(F)c4)CC3)c(=O)c2c1` [Example 53], half-maximal inhibition (IC50) was put at 0.18 nM.
As for `COc1ccc2c(c1)CN(CCC1CCN(Cc3ccoc3)CC1)C(=O)O2` [Example 44], the IC50 under setting [1] is 5.04 nM.
`O=c1[nH]c2nccnc2c(=O)n1CCC1CCN(Cc2ccccc2)CC1` [Example 10, 3-[2-{4 [(1-Benzyl)piperidyl]}ethyl]pyrazino[2,3-d]-pyprimidine-2,4-dione fumarate] registered a concentration for half-maximal inhibition (IC50) of 31.8 nM.
On the same count and under the same terms, the figure for `COc1ccc2c(c1)CN(CCC1CCN(Cc3cccc(F)c3)CC1)C(=O)O2` [Example 54] is 0.34 nM; for `COc1cccc2c1CN(CCC1CCN(Cc3ccccc3)CC1)C(=O)O2` [Example 1, 3-[2-(1-Benzyl-4-piperidyl)ethyl]-5-methoxy-2H-3,4-dihydro-1,3-benzoxazin-2-one hydrochloride] it is 0.03 nM.
Take `O=C(c1ccccc1)C1CC(=O)N(CCC2CCN(Cc3ccccc3)CC2)C1` (centres unmarked) [Example 13, 1-[2-{4-[(1-Benzyl)piperidyl]}ethyl]-4-benzoylpyrrolidin-2-one hydrochloride]: the IC50 under setting [1] stood at 20.3 nM.
With `COc1cccc2c1OC(=O)N(CCC1CCN(Cc3ccccc3)CC1)C2` [Example 25], 2.74 nM corresponded to half-maximal inhibition (IC50).
The same measure, in the same setting: to `CC1(O)c2nccnc2C(=O)N1CCC1CCN(Cc2ccccc2)CC1` (centres unmarked) [Example 11, 1-[2-{4-[(1-Benzyl)piperidyl]}ethyl]-7-hydroxy-7-methylpiperazino[2,3-c]pyrrolidin-2-one] belongs 99.6 nM; to `COc1ccc2oc(=O)n(CCC3CCN(CC4CCCCC4)CC3)c(=O)c2c1` [Example 43], 2.96 nM; to `Cc1ccc2oc(=O)n(CCC3CCN(Cc4ccccc4)CC3)c(=O)c2n1` [Example 64], 9.11 nM.
The compound `O=C1Oc2ccc(Cl)cc2CN1CCC1CCN(Cc2ccccc2)CC1` [Example 32] returned an IC50 of 1.39 nM.
For the compound `COc1ccc2c(c1)CN(CCC1CCN(CC3OCCO3)CC1)C(=O)O2` [Example 5, 3-{2-[1-(1,3-Dioxolan-2-ylmethyl)}-4-piperidine]ethyl}-6-methoxy-2H-3,4-dihydro-1,3-benzoxazin-2-one hydrochloride], under setting [1], the IC50 was determined as 49.5 nM.
Consider `COc1cc(OC)c2c(c1)OC(=O)N(CCC1CCN(Cc3ccccc3)CC1)C2` [Example 28], for which it took 0.38 nM to reach half-maximal inhibition (IC50).
The same measure, in the same setting: to `CCOc1ccc(C(=O)C2CC(=O)N(CCC3CCN(Cc4ccccc4)CC3)C2)cc1` (centres unmarked) [Example 75] belongs 20.8 nM.
The same measure, in the same setting: to `COc1ccc2oc(=O)n(CCC3CCN(CC4CCCC4)CC3)c(=O)c2c1` [Example 6, 3-[2-(1-Cyclopentylmethyl-4-piperidyl)-6-methoxy-ethyl]-2H-3,4-dihydro-1,3-benzoxazine-2,4-dione hydrochloride] belongs 4.86 nM.
Same read-out and setting: the figure for `COc1ccc2oc(=O)n(CCC3CCN(CC4OCCO4)CC3)c(=O)c2c1` [Example 7, 3-{2-[1-(1,3-Dioxolan-2-ylmethyl)-4-piperidyl]ethyl}-6-methoxy-2H-3,4-dihydro-1,3-benzoxazine-2,4-dione hydrochloride] is 124 nM.
`C=C1c2nccnc2C(=O)N1CCC1CCN(Cc2ccccc2)CC1` [Example 12, 1-[2-{4-[(1-Benzyl)piperidyl]}ethyl]-7-methylenepiperazino[2,3-c]pyrrolidin-2-one fumarate] gave a half-inhibitory concentration (IC50) of 1.82 nM.
Still for that read-out and setting: to `O=C1Oc2c(Cl)cc(Cl)cc2CN1CCC1CCN(Cc2ccncc2)CC1` [Example 30] belongs 29.1 nM; to `O=C1CC(Cc2ccccc2)CN1CCC1CCN(Cc2ccccc2)CC1` (centres unmarked) [Example 14, 1-[2-{(4-[(1-Benzyl)piperidyl]}ethyl]-4-benzylpyrrolidin-2-one hydrochloride], 23.8 nM.
In turn, `O=C(c1ccccc1)C1CC(=O)N(C2CCN(Cc3ccccc3)CC2)C1` (centres unmarked) [Example 65] registered a concentration for half-maximal inhibition (IC50) of 34000 nM.
On the same count and under the same terms, the figure for `Cc1ccc2oc(=O)n(CCC3CCN(Cc4ccccc4)CC3)c(=O)c2c1` [Example 37] is 2.97 nM; for `COc1ccc2c(c1)CN(CCC1CCN(Cc3ccncc3)CC1)C(=O)O2` [Example 4, 3-{2-[1-(4-Pyridylmethyl)-4-piperidyl]ethyl}-6-methoxy-2H-3,4-dihydro-1,3-benzoxazin-2-one dihydrochloride] it is 7.93 nM; for `COc1ccc2c(c1)CN(CCC1CCN(Cc3ccccc3)CC1)C(=O)O2` [Example 26] it is 0.5 nM.
On the same count and under the same terms, the figure for `O=c1[nH]c2ncccc2c(=O)n1CCC1CCN(Cc2ccncc2)CC1` [Example 71] is 137 nM; for `O=C1Oc2ccccc2CN1CCC1CCN(Cc2ccccc2)CC1` [Example 2, 3-[2-(1-Benzyl-4-piperidyl)ethyl]-2H-3,4-dihydro-1,3-benzoxazin-2-one hydrochloride] it is 4.94 nM.
On the same count and under the same terms, to `CC(=O)Nc1ccc2c(c1)CN(CCC1CCN(Cc3ccccc3)CC1)C(=O)O2` [Example 36] belongs 1.17 nM; to `Cc1ccc2c(n1)CN(CCC1CCN(Cc3ccccc3)CC1)C(=S)O2` [Example 9, 3-[2-(1-Benzyl-4-piperidyl)ethyl]-2H-3,4-dihydro-6-methylpyrido[2,3-d]-m-oxazine-2-thione hydrochloride], 8.38 nM; to `COc1ccc2c(c1)CN(CCC1CCN(CC3CCCC3)CC1)C(=O)O2` [Example 41], 4.64 nM.
`COc1ccc2oc(=O)n(CCC3CCN(Cc4ccccc4)CC3)c(=O)c2c1` [Example 38] gave an IC50 of 0.7 nM.
Same read-out and setting: the figure for `COc1cccc2c1CN(CCC1CCN(CC3OCCO3)CC1)C(=O)O2` [Example 52] is 64.9 nM.
The same measure, in the same setting: to `O=C1Oc2ccc([N+](=O)[O-])cc2CN1CCC1CCN(Cc2ccncc2)CC1` [Example 34] belongs 13.8 nM; to `COc1ccc2c(c1)OC(=O)N(CCC1CCN(Cc3ccccc3)CC1)C2` [Example 24], 1.87 nM.
Still for that read-out and setting: the figure for `Nc1ccc2c(c1)CN(CCC1CCN(Cc3ccccc3)CC1)C(=O)O2` [Example 35] is 1.85 nM.
`O=c1oc2ccc(F)cc2c(=O)n1CCC1CCN(CC2OCCO2)CC1` [Example 40] yielded an IC50 of 1020 nM.

The values above are taken from patent US5654308A (priority 1990, dated 1997).
